Read-outs that look alike come from different tables or passages of the source. Where only a bound is given, the exact number is not on record here.

A word on the LD50: it is the dose expected to kill half of the subjects tested.

Data set [1] deals with T1, tyrosine-hydroxylase (Rattus norvegicus, UniProt P04177).
T1 construct: on rat adrenal homogenate; from tissue; host or cells: rat adrenal homogenate
Nature of the data set: In vitro tyrosine-hydroxylase inhibiting activity (TH) on rat adrenal homogenate. It is filed as biochemical. Particulars: read-out: Enzyme inhibiting activity, TH; for inhibition at 100 µM: 10^-4 mole/liter; for inhibition at 10 µM: 10^-5 mole/liter. As to the method: In vitro tyrosine-hydroxylase inhibiting activity (TH inhibiting activity) of the new compounds according to the invention was tested by the method of Nagatsu [Anal. Biochem., 9, 122 (1964)] on rat adrenal homogenate. Radioactive tyrosine was purified by the method elaborated by Ikeda [J. Biol. Chem., 241, 4452 (1966)]. TH activity of the rat adrenal homogenate amounted to […] nmoles/mg protein/60 min.
(§1) Inhibiting effect of several compounds encompassed by the formula I in comparison with some known compounds is listed in the following Table I.

Data set [2] has as its target T2, dopamine-β-hydroxylase (Bos taurus, UniProt P15101).
T2 construct: from tissue; host or cells: bovine adrenal (gland) preparations
T2 sequence (P15101 1-610): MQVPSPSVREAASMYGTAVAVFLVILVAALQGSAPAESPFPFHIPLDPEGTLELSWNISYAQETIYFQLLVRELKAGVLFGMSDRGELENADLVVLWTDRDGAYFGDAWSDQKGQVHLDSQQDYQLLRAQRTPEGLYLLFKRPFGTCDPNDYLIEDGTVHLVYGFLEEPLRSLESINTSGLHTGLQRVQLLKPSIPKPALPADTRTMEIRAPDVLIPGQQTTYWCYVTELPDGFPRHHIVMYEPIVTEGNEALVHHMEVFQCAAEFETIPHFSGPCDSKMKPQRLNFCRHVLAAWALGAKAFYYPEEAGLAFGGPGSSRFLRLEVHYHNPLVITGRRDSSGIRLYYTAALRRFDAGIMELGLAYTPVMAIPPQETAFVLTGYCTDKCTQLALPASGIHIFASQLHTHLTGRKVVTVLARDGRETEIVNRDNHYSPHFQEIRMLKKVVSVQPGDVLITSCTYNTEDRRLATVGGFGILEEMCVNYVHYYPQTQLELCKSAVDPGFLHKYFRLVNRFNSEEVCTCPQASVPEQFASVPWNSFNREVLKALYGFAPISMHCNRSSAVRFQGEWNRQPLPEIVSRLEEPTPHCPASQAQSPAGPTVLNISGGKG
As to the kind of experiment: Dopamine-β-hydroxylase inhibiting activity (DBH) on bovine adrenal (gland) preparations. It is filed as biochemical. The conditions noted are these: read-out: Enzyme inhibiting activity, DBH; for inhibition at 100 µM: 10^-4 mole/liter; for inhibition at 10 µM: 10^-5 mole/liter. On the procedure:
Dopamine-β-hydroxylase inhibiting activity (DBH inhibiting activity) of the compounds according to the invention was tested on bovine adrenal (gland) preparations by a modified version of Nagatsu's method [B.B. Acta, 139 319 (1967)].
as §1

Data set [3] deals with spontaneous hypertensive rats (Wistar-Okamoto rats). Nature of the data set: Blood pressure lowering activity, systolic blood pressure of waking spontaneous hypertensive rats, oral. The data set is classed as in vivo, rat. Particulars: for change in vivo at 50 mg/kg / change in vivo at 20 mg/kg / change in vivo at 1.25 mg/kg: Rattus norvegicus, read-out: Reduction in blood pressure; for change in vivo at 50 mg/kg / change in vivo at 20 mg/kg / change in vivo at 1.25 mg/kg / Reduction in blood pressure: oral; for significant blood pressure lowering activity: ≥-15%; for change in vivo at 50 mg/kg / Reduction in blood pressure: 50 mg/kg. On the procedure:
Blood pressure lowering activity of the new compounds according to the invention was tested on spontaneous hypertensive rats (Wistar-Okamoto rats) following the method described in Arzn. Forsch., 6, 222 (1956). Systolic blood pressure of waking animals was measured in arteria caudalis 4, 24, 48 and 72 hours after the oral administration of the test compounds.

A short description of data set [4]: Acute toxicity (LD50) on mice. The conditions noted are these: mouse, in vivo, po.
The subject of data set [5] is mice. Nature of the data set: Acute toxicity (LD50) on mice. Particulars: i.p.

T1 sequence (P04177 whole entry): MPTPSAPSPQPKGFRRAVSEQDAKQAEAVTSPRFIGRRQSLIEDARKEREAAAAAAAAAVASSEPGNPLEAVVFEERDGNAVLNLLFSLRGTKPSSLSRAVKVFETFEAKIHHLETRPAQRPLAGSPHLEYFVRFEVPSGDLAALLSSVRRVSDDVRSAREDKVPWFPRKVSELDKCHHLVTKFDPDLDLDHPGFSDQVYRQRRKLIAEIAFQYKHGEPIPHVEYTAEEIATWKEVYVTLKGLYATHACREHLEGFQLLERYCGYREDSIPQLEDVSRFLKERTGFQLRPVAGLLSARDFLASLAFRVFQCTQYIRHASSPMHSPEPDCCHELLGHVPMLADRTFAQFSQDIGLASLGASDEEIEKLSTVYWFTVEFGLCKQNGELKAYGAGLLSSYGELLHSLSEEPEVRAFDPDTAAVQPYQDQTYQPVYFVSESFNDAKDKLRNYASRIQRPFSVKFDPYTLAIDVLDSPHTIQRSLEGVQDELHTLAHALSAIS

For `CCCOC(=O)CC(C)=NNc1ccc(Cl)nn1` [Example 28, 3-(Propoxycarbonyl)-2-propylidene-3-chloro-6-pyridazinylhydrazone], the inhibition at 100 µM was determined as 0% in data set [1] and 90% in data set [2]. The inhibition at 10 µM in data set [1] was 0%; in data set [2], 71%. For the same molecule, the change in vivo at 50 mg/kg in data set [3] (4 hours) was -29%; in data set [3] (24 hours), -25%. The “significant blood pressure lowering activity” value in data set [3] is listed as no less than -15%. In addition, in data set [4], the LD50 was greater than 200 mg/kg.

Regarding `CCOC(=O)CC(C)=NNc1ccc(Cl)nn1` [Example 20, 3-(Ethoxycarbonyl)-2-propylidene-(3-chloro-6-pyridazinyl)hydrazone], the inhibition at 100 µM in data set [1] and in data set [2] was 100% throughout. The inhibition at 10 µM in data set [1] stood at 50%; in data set [2], 87%. Besides, the change in vivo at 50 mg/kg in data set [3] (4 hours) and in data set [3] (24 hours) was -25% in each case. Further, in data set [3], the “significant blood pressure lowering activity” value is on record as no less than -15%. The molecule further displayed an LD50 in data set [4] of 530 mg/kg.

As to `CC(CC(=O)OC(C)C)=NNc1ccc(Cl)nn1` [Example 29, 3-(Isopropoxycarbonyl)-2-propylidene-3-chloro-6-pyridazinylhydrazone], the inhibition at 100 µM was determined as 50% in data set [1] and 70% in data set [2]. The inhibition at 10 µM in data set [1] is 0%; in data set [2], 47%. Also, the results for the change in vivo at 50 mg/kg in data set [3] (4 hours) and in data set [3] (24 hours) were -30% and -15%, respectively. Also, the “duration of blood pressure lowering effect” value in data set [3] (dose 20 mg/kg) is 48 h; in data set [3] (dose of 50 mg/kg), 72 h. For the same molecule, the “significant blood pressure lowering activity” value in data set [3] was no less than -15%. Also, the 50% lethal dose (LD50) in data set [4] turned out to be 250 mg/kg.

As to `CC(CCC(=O)O)=NNc1ccc(C)nn1` [Example 55, 4-Carboxy-2-butylidene-(3-methyl-6-pyridazinyl) hydrazone], the inhibition at 100 µM in data set [2] was 50%. The inhibition at 10 µM in data set [2] was found to be 0%. Further, the change in vivo at 20 mg/kg is -39% in data set [3] (4 hours) and -14% in data set [3] (24 hours). For the same molecule, the “significant blood pressure lowering activity” value in data set [3] is given as no less than -15%. Also, in data set [4], the LD50 is greater than 200 mg/kg.

For `O=C(O)C1CCCCC1=NNc1cccnn1` (stereo not shown) [Example 19, 2-carboxy-1-cyclohexylidene-3-pyridazinylhydrazone], the inhibition at 100 µM stood at 82% in data set [1] and 75% in data set [2]. Moreover, the values for the inhibition at 10 µM in data set [1] and in data set [2] were 30% and 10%, respectively. Besides, the change in vivo at 50 mg/kg in data set [3] (4 hours) is -8%; in data set [3] (24 hours), -9%. This molecule showed an LD50 in data set [4] greater than 200 mg/kg.

For the molecule `COC(=O)CC(=NNc1ccc(Cl)nn1)C(=O)OC` [Example 64, 1,2-di-(methoxycarbonyl)-ethylidene-(3-chloro-6-pyridazinyl)hydrazone], the results for the inhibition at 100 µM in data set [1] and in data set [2] were 36% and 50%, respectively. Further, the inhibition at 10 µM in data set [1] was 10%; in data set [2], 0%. Besides, the results for the change in vivo at 50 mg/kg in data set [3] (4 hours) and in data set [3] (24 hours) were -25% and -11%, respectively. The “significant blood pressure lowering activity” value in data set [3] was no less than -15%. For the same molecule, the 50% lethal dose (LD50) in data set [4] is greater than 200 mg/kg.

Consider `COC(=O)CCC(C)=NNc1ccc(Cl)nn1` [Example 23], for which, in data set [2], the inhibition at 100 µM was determined as 70% and the inhibition at 10 µM turned out to be 50%. Moreover, in data set [3] (4 hours), the change in vivo at 50 mg/kg is -21%. The change in vivo at 50 mg/kg in data set [3] (24 hours) is -8%. Moreover, in data set [3], the “significant blood pressure lowering activity” value was no less than -15%. The molecule also gave a median lethal dose (LD50) in data set [4] of 200 mg/kg.

For the molecule `CCOC(=O)CCCCC(C)=NNc1ccc(Cl)nn1` [Example 49, 6-(Ethoxycarbonyl)-2-hexylidene-3-chloro-6-pyridazinylhydrazone], in data set [2], the inhibition at 100 µM is 66% and the inhibition at 10 µM is 50%. The change in vivo at 20 mg/kg in data set [3] (4 hours) is -22%. Also, the change in vivo at 20 mg/kg in data set [3] (24 hours) was -13%. Further, the “significant blood pressure lowering activity” value in data set [3] is reported as no less than -15%. In addition, the LD50 in data set [4] is less than 200 mg/kg.

On to `CC(CC(=O)OC(C)(C)C)=NNc1ccc(N2CCOCC2)nn1` [Example 52, 3-(tert.-Butoxycarbonyl)-2-propylidene-3-morpholino-6-pyridazinylhydrazone], for which the inhibition at 100 µM in data set [1] was found to be 65%; in data set [2], 30%. In addition, the inhibition at 10 µM is 40% in data set [1] and 0% in data set [2]. In addition, the change in vivo at 1.25 mg/kg in data set [3] (4 hours) was -21%; in data set [3] (24 hours), -9%. Besides, in data set [3], the “significant blood pressure lowering activity” value is reported as no less than -15%. In data set [4], this molecule gave a median lethal dose (LD50) of 400 mg/kg.

As for `CC(CC(=O)OC(C)(C)C)=NNc1ccc(Cl)nn1` [Example 30, 3-(tert.-Butoxycarbonyl)-2-propylidene-3-chloro-6-pyridazinylhydrazone], the inhibition at 100 µM in data set [1] stood at 50%; in data set [2], 70%. Further, the inhibition at 10 µM in data set [1] is 0%; in data set [2], 22%. In addition, the change in vivo at 50 mg/kg in data set [3] (4 hours) is -31%; in data set [3] (24 hours) it was -14%. Further, the figures for the “duration of blood pressure lowering effect” value in data set [3] (dose 20 mg/kg) and in data set [3] (dose of 50 mg/kg) were 48 h and 72 h, respectively. Also, the “significant blood pressure lowering activity” value in data set [3] is given as no less than -15%. Further, the LD50 in data set [4] is 250 mg/kg.

With `CCOC(=O)CC=NNc1ccc(Cl)nn1` [Example 65, 2-(Ethoxycarbonyl)-1-ethylidene-(3-chloro-6-pyridazinyl)hydrazone], in data set [2], the inhibition at 100 µM was determined as 73% and the inhibition at 10 µM was determined as 44%. In data set [3] (4 hours), the change in vivo at 50 mg/kg is -18%. Besides, in data set [3] (24 hours), the change in vivo at 50 mg/kg is -23%. The “significant blood pressure lowering activity” value in data set [3] was no less than -15%. This molecule also yielded a 50% lethal dose (LD50) in data set [4] greater than 200 mg/kg.

For Fumaric acid [reference compound], the “Reduction in blood pressure” value in data set [3] (4 hours) is -33%; in data set [3] (24 hours) it was 0%. Also, in data set [5], the “Acute toxicity [LD50] on mice” value turned out to be 80 mg/kg.

For the molecule `CCOC(=O)C1CCCCC1=NNc1ccc(Cl)nn1` (stereo not shown) [Example 17, 2-(Ethoxycarbonyl)-1-cyclohexylidene-3-chloro-6-pyridazinylhydrazone], the inhibition at 100 µM in data set [1] stood at 85%; in data set [2] it was 70%. The inhibition at 10 µM was 33% in data set [1] and 10% in data set [2]. In addition, the change in vivo at 50 mg/kg in data set [3] (4 hours) is -23%; in data set [3] (24 hours), -13%. In addition, in data set [3], the “significant blood pressure lowering activity” value is listed as no less than -15%. Further, the LD50 in data set [4] is 300 mg/kg.
